Results taken from US20240299384A1, “METHODS FOR TREATING PULMONARY HYPERTENSION IN PATIENTS WITH LEFT VENTRICULAR ASSIST DEVICE IMPLANTATION” (ACTELION PHARMACEUTICALS LTD, priority 2021, published 2024).

Columns and labels:
[1] = tested on: patients with PH post-LVAD implantation; assay: Phase 2 study in PH post-LVAD implantation: adverse events (Safety Set); assay type: in vivo
Protocol: This is a double-blind, placebo-controlled, multicenter, parallel-group Phase 2 study assessing the efficacy and safety of macitentan in PH post-LVAD implantation. Approximately 57 adult patients with PH post-LVAD implantation were randomized (1:1) to receive either macitentan 10 mg, or matching placebo, once daily orally.
• Treatment-emergent AEs up to 30 days after treatment discontinuation. • AEs leading to premature discontinuation of treatment. • Death up to 30 days after treatment discontinuation. • Treatment-emergent SAEs up to 30 days after treatment discontinuation. • Change from Baseline to EOT in vital signs. • Occurrence of liver function test (ALT and/or AST) abnormality (≥3×ULN; ≥3 and <5×ULN; ≥5 and <8×ULN; ≥8×ULN) up to EOT. • Occurrence of ALT and/or AST abnormality ≥3×ULN associated with bilirubin ≥2×ULN up to EOT. • Proportion of patients with treatment-emergent hemoglobin abnormality (<10.0 g/dL, and <8.0 g/dL) as compared to Baseline up to EOT. • Treatment-emergent marked laboratory abnormalities up to EOT.
An AE is any adverse change, i.e., any unfavorable and unintended sign, including an abnormal laboratory finding, symptom, or disease that occurs in a patient. AEs include: • Exacerbation of a pre-existing disease. • Increase in frequency or intensity of a pre-existing episodic disease or medical condition. • Disease or medical condition detected or diagnosed even though it may have been present prior to the start of the treatment. • Continuous persistent disease or symptoms present at treatment start that worsen following the start. • Abnormal assessments, e.g., change on physical examination, ECG findings, if they represent a clinically significant finding that was not present at treatment start or worsened during the course of the treatment. • Laboratory test abnormalities if they represent a clinically significant finding, symptomatic or not, which was not present at treatment start or worsened during the course of the treatment or led to dose reduction, interruption or permanent discontinuation of treatment.
A treatment-emergent AE is any AE temporally associated with the use of treatment (from treatment initiation until 30 days after treatment discontinuation). Overdose, misuse, and abuse of the treatment may be considered an AE.
The intensity of clinical AEs is graded on a three-point scale-mild, moderate, severe. The three categories of intensity are defined as follows: • Mild: The event may be noticeable to the patient. […] Performance of daily activities may be influenced, and intervention may be needed. • Severe: The event may cause noticeable discomfort, and usually interferes with daily activities. The patient may not be able to continue, and treatment or intervention is usually needed.
An SAE is defined by the ICH guidelines as any AE fulfilling at least one of the following criteria: • Fatal. • Life-threatening: refers to an event in which the patient was at risk of death at the time of the event.
Safety Set (SS): The SS includes all patients receiving at least one dose of drug in the treatment period.
A treatment-emergent AE is any AE temporally associated with the use of a treatment. The number and percentage of patients experiencing treatment-emergent AEs and SAEs at least once are tabulated by treatment group and by: • MedDRA SOC and individual preferred term within each SOC, in descending order of incidence. • Frequency of patients with events coded with the same preferred term, in descending order of incidence.

[2] = humans, cited from earlier work
[3] = AEs leading to treatment discontinuation, SS, N = 28
[4] = SMQs for anemia, hypotension, edema/fluid retention, 10 mg once daily, N = 28
[5] = frequently reported AEs, SS, N = 28
[6] = treatment-emergent, 10 mg once daily, N = 28

For `CCCNS(=O)(=O)Nc1ncnc(OCCOc2ncc(Br)cn2)c1-c1ccc(Br)cc1` [Macitentan, propylsulfamic acid [5-(4-bromo-phenyl)-6-[2-(5-bromo-pyrimidin-2-yloxy)-ethoxy]-pyrimidin-4-yl]-amide], the “Any Treatment-Related Adverse Event Leading to Treatment Discontinuation, number of patients” value ([1]; 10 mg once daily, N = 28) was 2, the “Any Treatment-Related Adverse Event Leading to Treatment Discontinuation, percent of patients” value ([1]; 10 mg once daily, N = 28) was “(7.1) %” and the “Acute kidney injury, number of patients” value [1, 3] was 1. For the same molecule, the “Acute kidney injury, percent of patients” value [1, 3] was 3.6%, the “Anaemia, number of patients” value [1, 3] was 0 and the “Blood alkaline phosphatase increased, number of patients” value [1, 3] was 1. The “Blood alkaline phosphatase increased, percent of patients” value [1, 3] was 3.6%, the “Blood and lymphatic system disorders, number of patients” value [1, 3] was 0 and the “Blood bilirubin increased, number of patients” value [1, 3] was 1. For the same molecule, the “Blood bilirubin increased, percent of patients” value [1, 3] was 3.6%, the “Cardiac disorders, number of patients” value [1, 3] was 1 and the “Cardiac disorders, percent of patients” value [1, 3] was 3.6%. The “Cerebral haemorrhage, number of patients” value [1, 3] was 1, the “Cerebral haemorrhage, percent of patients” value [1, 3] was 3.6% and the “General disorders and administration site conditions, number of patients” value [1, 3] was 1. For the same molecule, the “General disorders and administration site conditions, percent of patients” value [1, 3] was 3.6%, the “Haemolysis, number of patients” value [1, 3] was 0 and the “Haemorrhagic stroke, number of patients” value [1, 3] was 0. For the same molecule, the “International normalised ratio increased, number of patients” value [1, 3] was 1, the “International normalised ratio increased, percent of patients” value [1, 3] was 3.6% and the “Investigations, number of patients” value [1, 3] was 1. The “Investigations, percent of patients” value [1, 3] was 3.6%, the “Liver function test increased, number of patients” value [1, 3] was 1 and the “Liver function test increased, percent of patients” value [1, 3] was 3.6%. For the same molecule, the “Nervous system disorders, number of patients” value [1, 3] was 1, the “Nervous system disorders, percent of patients” value [1, 3] was 3.6% and the “Oedema peripheral, number of patients” value [1, 3] was 1. The “Oedema peripheral, percent of patients” value [1, 3] was 3.6%, the “Renal and urinary disorders, number of patients” value [1, 3] was 1 and the “Renal and urinary disorders, percent of patients” value [1, 3] was 3.6%. The “Right ventricular failure, number of patients” value [1, 3] was 1, the “Right ventricular failure, percent of patients” value [1, 3] was 3.6% and the “Any Events of Interest, number of patients” value [1, 4] was 10. The “Any Events of Interest, percent of patients” value [1, 4] was “(35.7) %”, the “Any Adverse Event Leading to Treatment Discontinuation, number of patients” value ([1]; SS, 10 mg once daily, N = 28) was 4 and the tolerability in words ([1]; early post-LVAD population, 10 mg once daily) was “well tolerated”. For the same molecule, the “Acute kidney injury, number of patients” value [1, 5] was 3, the “Acute kidney injury, percent of patients” value [1, 5] was “(10.7) %” and the “Anticoagulation drug level below therapeutic, number of patients” value [1, 5] was 4. The “Anticoagulation drug level below therapeutic, percent of patients” value [1, 5] was “(14.3) %”, the “Complication associated with device, number of patients” value [1, 5] was 0 and the “Cystatin C increased, number of patients” value [1, 5] was 3. The “Cystatin C increased, percent of patients” value [1, 5] was “(10.7) %”, the “Dehydration, number of patients” value [1, 5] was 0 and the “Dizziness, number of patients” value [1, 5] was 4. For the same molecule, the “Dizziness, percent of patients” value [1, 5] was “(14.3) %”, the “Dyspnoea, number of patients” value [1, 5] was 4 and the “Dyspnoea, percent of patients” value [1, 5] was “(14.3) %”. The “Fall, number of patients” value [1, 5] was 0, the “Fatigue, number of patients” value [1, 5] was 4 and the “Fatigue, percent of patients” value [1, 5] was “(14.3) %”. For the same molecule, the “Hyperkalaemia, number of patients” value [1, 5] was 3, the “Hyperkalaemia, percent of patients” value [1, 5] was “(10.7) %” and the “Hypotension, number of patients” value [1, 5] was 3. The “Hypotension, percent of patients” value [1, 5] was “(10.7) %”, the “N-terminal prohormone brain natriuretic peptide increased, number of patients” value [1, 5] was 4 and the “N-terminal prohormone brain natriuretic peptide increased, percent of patients” value [1, 5] was “(14.3) %”. The “Oedema peripheral, number of patients” value [1, 5] was 4, the “Oedema peripheral, percent of patients” value [1, 5] was “(14.3) %” and the “Ventricular tachycardia, number of patients” value [1, 5] was 1. For the same molecule, the “Ventricular tachycardia, percent of patients” value [1, 5] was “(3.6) %”, the “Vomiting, number of patients” value [1, 5] was 2 and the “Vomiting, percent of patients” value [1, 5] was “(7.1) %”. The “safety profile in words” value ([1]; post-LVAD implantation patients, 10 mg once daily) was “favorable safety profile”, the “Acute kidney injury, number of patients” value ([1]; serious AEs, N = 28) was 2 and the “Acute kidney injury, percent of patients” value ([1]; serious AEs, N = 28) was “(7.1) %”. For the same molecule, the “Anticoagulation drug level below therapeutic level, number of patients” value ([1]; serious AEs, N = 28) was 3, the “Anticoagulation drug level below therapeutic level, percent of patients” value ([1]; serious AEs, N = 28) was “(10.7) %” and the “Complication associated with device, number of patients” value ([1]; serious AEs, N = 28) was 0. The “Dehydration, number of patients” value ([1]; serious AEs, N = 28) was 0, the “Gastrointestinal hemorrhage, number of patients” value ([1]; serious AEs, N = 28) was 0 and the “Pleural effusion, number of patients” value ([1]; serious AEs, N = 28) was 2. For the same molecule, the “Pleural effusion, percent of patients” value ([1]; serious AEs, N = 28) was “(7.1) %”, the “Right ventricular failure, number of patients” value ([1]; serious AEs, N = 28) was 2 and the “Right ventricular failure, percent of patients” value ([1]; serious AEs, N = 28) was “(7.1) %”. The “Septic shock, number of patients” value ([1]; serious AEs, N = 28) was 2, the “Septic shock, percent of patients” value ([1]; serious AEs, N = 28) was “(7.1) %” and the “Ventricular tachycardia, number of patients” value ([1]; serious AEs, N = 28) was 0. The “Any Adverse Event With Outcome of Death, number of patients” value [1, 6] was 1, the “Any Adverse Event With Outcome of Death, percent of patients” value [1, 6] was “(3.6) %” and the “Any Adverse Event, number of patients” value [1, 6] was 26. For the same molecule, the “Any Adverse Event, percent of patients” value [1, 6] was “(92.9) %”, the “Any Serious Adverse Event, number of patients” value [1, 6] was 16 and the “Any Serious Adverse Event, percent of patients” value [1, 6] was “(57.1) %”. The “Any Severe Adverse Event, number of patients” value [1, 6] was 9, the “Any Severe Adverse Event, percent of patients” value [1, 6] was “(32.1) %” and the “Any Severe Treatment-Related Adverse Event, number of patients” value [1, 6] was 2. For the same molecule, the “Any Severe Treatment-Related Adverse Event, percent of patients” value [1, 6] was “(7.1) %”, the “Any Treatment-Related Adverse Event, number of patients” value [1, 6] was 6 and the “Any Treatment-Related Adverse Event, percent of patients” value [1, 6] was “(21.4) %”. The “Any Treatment-Related Serious Adverse Event, number of patients” value [1, 6] was 2, the “Any Treatment-Related Serious Adverse Event, percent of patients” value [1, 6] was “(7.1) %” and the “time to steady state” value ([2]; 10 mg oral dose once a day) was “third day”. The “absorption into the plasma” value [2] was “absorbed slowly” and the half-life [2] was “about 16 hours”.
